Data published in patent US20090233796A1, “HERBICIDAL COMPOSITION” (SYNGENTA CROP PROTECTION, INC., priority 2004, published 2009).

Tests used:
Format in all cases: in vivo
IPOMOEA SP. = assay: Compound (A) with S-metolachlor, weed plots
Method: (§1) In these tests, various weeds were treated with S-metolachlor (SMOC) alone at an application rate equivalent to 1420 g per hectare, Compound (A) alone at rates equivalent to 20 g per hectare and […] and with mixtures of S-metolachlor and the Compound (A) at rates equivalent to the sum of these. The compositions were formulated as an emulsifyable concentrate (EC).
(§2) The results in the table under each application are the percentage of the plants that were killed.

XANTHIUM STRUMARIUM = assay: Compound (A) with S-metolachlor, weed plots
Method: as §1, §2

AMBROSIA ARTEMISIIFOLIA = assay: Compound (A) with S-metolachlor, weed plots
Method: as §1, §2

POLYGONUM PENSYLVANICUM = assay: Compound (A) with S-metolachlor, weed plots; conditions: 56 DAA, Trial 4.14
Method: as §1, §2

STELLARIA MEDIA = assay: Compound (A) with triasulfuron, weed plots; conditions: 10 g per hectare; 30 DAA; No. 3.1
Method: In these tests, various weeds were treated with triasulfuron alone at a rate equivalent to 26 g per hectare, Compound (A) alone at a rate equivalent to 10 g per hectare, and to a mixture of triasulfuron and Compound (A) at rates equivalent to the sum of these. The compositions were formulated as an emulsifyable concentrate (EC).
as §2

CCOC(=O)COc1ncccc1Oc1cc(-n2c(=O)cc(C(F)(F)F)n(C)c2=O)c(F)cc1Cl [Compound (A)]
percentage of the plants that were killed (IPOMOEA SP.; 20 g/ha, 25 DAA, Trial 4.9): 35% | percentage of the plants that were killed (IPOMOEA SP.; 20 g/ha, 49 DAA, Trial 4.10): 20% | percentage of the plants that were killed (IPOMOEA SP.; 40 g/ha, 25 DAA, Trial 4.9): 65% | percentage of the plants that were killed (IPOMOEA SP.; 40 g/ha, 49 DAA, Trial 4.10): 60% | percentage of the plants that were killed (XANTHIUM STRUMARIUM; 20 g/ha, 26 DAA, Trial 4.17): 25% | percentage of the plants that were killed (XANTHIUM STRUMARIUM; 20 g/ha, 42 DAA, Trial 4.18): 23% | percentage of the plants that were killed (XANTHIUM STRUMARIUM; 40 g/ha, 26 DAA, Trial 4.17): 73% | percentage of the plants that were killed (XANTHIUM STRUMARIUM; 40 g/ha, 42 DAA, Trial 4.18): 68% | percentage of the plants that were killed (AMBROSIA ARTEMISIIFOLIA; 20 g/ha, 25 DAA, Trial 4.7): 47% | percentage of the plants that were killed (AMBROSIA ARTEMISIIFOLIA; 20 g/ha, 49 DAA, Trial 4.8): 30% | percentage of the plants that were killed (AMBROSIA ARTEMISIIFOLIA; 40 g/ha, 25 DAA, Trial 4.7): 79% | percentage of the plants that were killed (AMBROSIA ARTEMISIIFOLIA; 40 g/ha, 49 DAA, Trial 4.8): 69% | percentage of the plants that were killed (POLYGONUM PENSYLVANICUM; 20 g/ha): 0% | percentage of the plants that were killed (POLYGONUM PENSYLVANICUM; 40 g/ha): 13% | percentage of the plants that were killed (STELLARIA MEDIA): 63%
